Test results reported in paper PMC8145564, “Phenolic Compounds from Carissa spinarum Are Characterized by Their Antioxidant, Anti-Inflammatory and Hepatoprotective Activities” (Antioxidants, 2021).
Entries after “also recorded” stand apart in the source; their conditions may differ. Marks after values point to notes of the source that are not given here. Values belong to the molecule of their own block, whether it stands above or below them.

How the values were obtained:
rhCOX-2 = target: T1, rhCOX-2 (Homo sapiens, UniProt P35354); assay: COX-2 inhibition assay (COX-2 inhibitor screening kit, fluorescence probe method)
T1 sequence (P35354 18-604): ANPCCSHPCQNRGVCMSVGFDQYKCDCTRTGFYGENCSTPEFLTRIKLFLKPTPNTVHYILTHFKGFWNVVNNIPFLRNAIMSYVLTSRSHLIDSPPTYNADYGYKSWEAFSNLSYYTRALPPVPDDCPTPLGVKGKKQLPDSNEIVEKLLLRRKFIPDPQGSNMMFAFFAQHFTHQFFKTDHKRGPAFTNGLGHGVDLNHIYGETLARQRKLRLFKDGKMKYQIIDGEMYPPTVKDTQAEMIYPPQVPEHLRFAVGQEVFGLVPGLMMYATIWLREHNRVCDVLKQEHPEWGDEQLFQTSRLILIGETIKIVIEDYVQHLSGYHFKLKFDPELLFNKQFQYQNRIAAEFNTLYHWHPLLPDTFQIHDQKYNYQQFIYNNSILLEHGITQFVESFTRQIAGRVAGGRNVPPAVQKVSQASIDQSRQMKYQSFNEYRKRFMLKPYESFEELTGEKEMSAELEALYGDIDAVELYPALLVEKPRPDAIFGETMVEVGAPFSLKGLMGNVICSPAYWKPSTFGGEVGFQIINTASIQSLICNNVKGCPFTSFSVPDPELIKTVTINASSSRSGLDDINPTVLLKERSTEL
Description: COX-2 inhibition activity was screened using a commercial assay kit by the fluorescence probe method, following the manufacturer’s instructions, based on a two-step reaction: the substrate (arachidonic acid) was firstly catalyzed by COX-2 to generate PGG2, which was then further catalyzed by COX-2 to produce PGH2. During the second step, the probe without fluorescence added in the reaction system was simultaneously catalyzed to probe with strong fluorescence. […] After incubation for 10 min at 37 °C, 5 µL COX-2 substrate and 5 µL COX-2 probe were added and incubated in darkness for 10 min. Then, the fluorescence intensity was recorded by microplate reader with the excitation wavelength at 560 nm and the emission wavelength at 590 nm. The COX-2 activity inhibition percentage was calculated by the following equation: COX-2 activity inhibition (%) = [(F100% activity control − Fsample)/(F100% activity control − Fblank control)] × 100%(2) where F100% activity control, Fsample and Fblank control represent the fluorescence intensity of the 100% enzyme activity control, samples or positive control, and blank control, respectively.

L02 cells [1] = assay: Quantitation of intracellular ROS (DCFH-DA) in H2O2-induced L02 cells; type: cell-based; details: 5 µM final concentration, DCFH-DA fluorescence
Description: The quantitation of intracellular ROS was detected by the ROS assay kit purchased from Beyotime (Shanghai, China) following the manufacturer’s instructions. The cell pretreatment was the same as hepatoprotective activity screening. Four hours later, after the addition of H2O2, the cells were incubated with 10 µM DCFH-DA (final concentration in RPMI-1640 medium) for 30 min, and were then washed three times with medium. Finally, the fluorescence intensity was recorded by a microplate reader with the excitation wavelength at 488 nm and the emission wavelength at 525 nm and then the fluorescence photos were taken by a cell imaging multi-mode reader (Cytation 1, BioTek, Winooski, VT, USA). Each group was performed in triplicate and the fluorescence values were calibrated by the corresponding cell viabilities using the SRB method.

[2] = Ferric reducing antioxidant power (FRAP) assay; type: biochemical; details: for FRAP total antioxidant activity (result in words): isolated compounds, 6.25 to 100 µM, positive control vitamin C
Description: The FRAP assay was performed according to the methodology reported in [26, 27] with minor modifications. Briefly, the FRAP working solution, composed of 300 mM acetate buffer (pH 3.6), 10 mM TPTZ solution and 20 mM FeCl3·6H2O solution in a ratio of 10:1:1 (v/v/v), was freshly prepared and warmed at 37 °C before use. Then, 190 µL FRAP working solution and 10 µL samples were added in 96-well plates and incubated at 37 °C for 10 min. The absorbance of the reaction mixture was collected by a microplate reader at 593 nm. A standard curve was established by FeSO4 at final concentrations ranging from 1.56 to 200 µM, and the total antioxidant activities of the extracts, compounds and positive controls (vitamin C) were calculated by the standard curve and expressed in terms of the FeSO4 value (µM). All the results were shown by the average values of the three biological replications.

L02 cells [3] = assay: Hepatoprotective activity on L02 cells against H2O2-induced oxidative stress (SRB cell viability); type: cell-based; details: then 300 µM H2O2 for 4 h, % of normal control, H2O2 model group 68.2% (65.2% for vitamin C); for viability at 5 µM: Homo sapiens, L02, 12 h pretreatment
Description: The L02 cells were purchased from BeNa Culture Collection Company (BNCC, Beijing, China) and cultured in RPMI-1640 medium supplemented with 10% fetal bovine serum (FBS) and 1% penicillin–streptomycin solution at 37 °C under 5% CO2 in a humidified incubator. The H2O2 induced oxidative stress model of L02 cell was established according to the reported method with slight modifications. Firstly, 120 µL L02 cell suspension (1 × 10^4 cells) was seeded in a 96-well plate and incubated for 24 h, followed by the addition of 15 µL PBS buffer (corresponding to the addition of tested samples). […] The cell viability was evaluated by the SRB test kit (BestBio, Shanghai, China) following the manufacturer’s instructions. According to the above result, after the 24 h incubation, the L02 cells were pretreated with 15 µL samples of various concentrations or PBS (H2O2-induced model and normal control group) for 12 h. Then, 15 µL H2O2 solution (300 µM) or PBS (normal control group) was added and maintained for 4 h. Finally, the cell viability was tested by the SRB method and expressed as a percentage of the normal control group. Each group was performed in triplicate.

[4] = DPPH radical scavenging activity assay; type: biochemical; details: for Antioxidant potential in DPPH and FRAP (result in words): both methods (DPPH and FRAP); for IC50: isolated compounds, final concentrations 6.25 to 100 µM
Description: The 2,2-diphenyl-1-picrylhydrazyl (DPPH) radical scavenging abilities of the C. spinarum extracts and isolated compounds were assessed by the previously reported method. The reaction mixtures containing 190 µL DPPH solution (100 µM) and 10 µL samples (extracts or compounds) or positive control (vitamin C) solutions with various concentrations or blank control (methanol) were placed in the 96-well plate, and incubated in darkness at room temperature for 30 min. Then, the absorbance of the reaction mixture was measured by the microplate reader at 517 nm. All groups were tested in triplicate and the DPPH radical scavenging activity was calculated by the following equation:DPPH-radical scavenging percentage (%) = [(Acontrol − Asample)/Acontrol] × 100%(1)
Acontrol and Asample represent the absorbance of the blank control and samples or positive control, respectively. Additionally, the IC50 values, which were defined as the effective sample concentration when DPPH radical was scavenged by 50%, were calculated by the GraphPad Prism software.

IC50 (rhCOX-2): 0.3 µM
SMILES: COc1cc([C@H]2c3cc(O)c(OC)cc3C[C@@H](CO)[C@@H]2CO[C@@H]2O[C@H](CO)[C@@H](O)[C@H](O)[C@H]2O)ccc1O [Compound 2, (+)-isolariciresinol 3a-O-β-D-glucopyranoside]
ROS quantity versus H2O2-induced model group (L02 cells [1]): statistically significant decreases in ROS quantity
FRAP total antioxidant activity (result in words) [2]: higher reducing capacities than the positive control
viability at 5 µM (L02 cells [3]): 79.4%

SMILES: CC(=O)c1ccccc1O[C@@H]1OC(CO[C@@H]2OC[C@@H](O)[C@H](O)[C@H]2O)[C@@H](O)[C@H](O)[C@H]1O (stereo partly drawn) [Compound 5, acetophenone-2-O-β-xylopyranosyl-(1→6)-O-β-glucopyranoside]
Antioxidant potential in DPPH and FRAP (result in words) [4]: no obvious antioxidant potential

SMILES: COc1cc([C@@H](O)[C@@H](C)O)ccc1O [Compound 6, erythro-1-(3-methoxy-4-hydroxy-phenyl)-propan-1,2-diol]
FRAP total antioxidant activity (result in words) [2]: higher reducing capacities than the positive control

SMILES: COc1cc([C@@H](O)[C@H](C)O)ccc1O [Compound 7, threo-1-(3-methoxy-4-hydroxy-phenyl)-propan-1,2-diol]
FRAP total antioxidant activity (result in words) [2]: higher reducing capacities than the positive control

SMILES: O=C(O)Cc1cccc(C(=O)O)c1 [Compound 8, 3-carboxymethyl-benzoic acid]
Antioxidant potential in DPPH and FRAP (result in words) [4]: no obvious antioxidant potential
DPPH scavenging rate at the highest tested concentration ([4]; highest tested concentration (100 µM)): lower than 10%
COX-2 inhibition activity (result in words) (rhCOX-2; all tested concentrations, 0.04 to 25 µM): no COX-2 ability in all tested concentrations; also recorded: did not show any activities
FRAP total antioxidant activity (result in words) [2]: did not show any activities

SMILES: O=C(O)c1ccc(O)c(O)c1 [Compound 9, protocatechuic acid]
IC50 ([4]; means ± SD (n = 3)): 16.5 ± 1.2 µM
ROS quantity versus H2O2-induced model group (L02 cells [1]): statistically significant decreases in ROS quantity
FRAP total antioxidant activity (result in words) [2]: higher reducing capacities than the positive control
viability at 5 µM (L02 cells [3]): 80.9%

IC50 ([4]; means ± SD (n = 3)): 25.5 ± 0.3 µM
SMILES: O=C1O[C@H]([C@@H](O)CO)C(O)=C1O [Vitamin C, vitamin C, reference compound]
DPPH IC50 ([4]; extracts of C. spinarum root bark, 30 min, 517 nm, means ± SD (n = 3)): 4.5 ± 0.1 ^d µg/mL
FRAP ([2]; extracts of C. spinarum root bark, means ± SD (n = 3)): 8.9 ± 1.2 ^b mmol Fe^2+/g
Viability of L02 cells (L02 cells [3]; 5 µM, 12 h pretreatment): 82.7%
